# From patent US8609610B2, “Inhibitors of the trypsin-like site of the proteasome and methods of use thereof” (Trustees of Dartmouth College, priority 2011, dated 2013)
# Like-named read-outs stand apart in the source and are kept apart here.
# Legend:
# [1] = tested on: MM cell lines NCI-H929, MM1.R, RPMI-8226, KMS-18, KMS-12-BM; assay: ALAMAR BLUE viability, panel of MM cell lines; format: cell-based
# Protocol: (§1) RPMI-8226 and NCI-H929 cells were cultured in RPMI-1640 supplemented with 10% fetal bovine serum, penicillin, streptomycin, and plasmocin in 5% CO2 humidified incubator. HEK-293T cells were cultured in DMEM containing 10% fetal calf serum, 10 units/mL penicillin, and 10 μg/mL streptomycin in a 7% CO2 humidified incubator. Viability of multiple myeloma cells was measured with ALAMAR BLUE mitochondrial dye conversion assay. Viability of peripheral blood mononuclear cells (PBMNCs) was measured using CELL TITER-GLO luminescent cell viability assay (Promega), which is based on quantification of ATP present in the cells. Caspase-3/7 activity was measured using APO-ONE 3/7 homogeneous assay (Promega).
# In a parallel set of experiments, it was tested whether co-inhibiting caspase-like and trypsin-like sites suffices to induce cytotoxicity in the absence of inhibition of the chymotrypsin-like sites and whether such dual inhibition is a stronger sensitizer to LU-005 than inhibition of the trypsin-like sites alone. Four additional myeloma cell lines, MM1.R, RPMI-8226, KMS-18, and KMS-12-BM, were selected for these experiments. These cell lines vary up to 40-fold in their sensitivity to bortezomib and NC-005 (Britton, et al. (2009) supra). In all experiments, NC-022 was used at a concentration that inhibited trypsin-like activity by more than 90% after a 6-hour incubation.
# NCI-H929 cells = assay: ALAMAR BLUE cell viability assay; format: cell-based
# Procedure, shortened: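 Myeloma lines were grown in RPMI-1640 with 10% FBS; viability of myeloma cells was read by ALAMAR BLUE mitochondrial dye conversion. PBMNC viability used CELL TITER-GLO ATP luminescence. Caspase-3/7 activity in NCI-H929 and MM1.R was measured with the APO-ONE homogeneous assay.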
# [2] = target: T1, caspase-like sites (β1) of proteasome in MM cells (Homo sapiens, UniProt P28072+Q99436); assay: PROTEASOMEGLO assay of proteasome inhibition in MM cells; format: cell-based; conditions: 6 hours, >>30 no inhibition at 30 μM, >30 inhibition 10-50% at 30 μM, read-out: IC50 for sites: Casp-L
# T1 sequence (P28072 35-239): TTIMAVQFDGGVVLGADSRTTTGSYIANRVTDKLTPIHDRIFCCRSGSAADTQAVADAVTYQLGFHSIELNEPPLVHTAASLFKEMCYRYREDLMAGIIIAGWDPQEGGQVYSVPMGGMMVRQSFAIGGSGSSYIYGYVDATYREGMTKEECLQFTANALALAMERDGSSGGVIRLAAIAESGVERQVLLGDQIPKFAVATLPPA
# T1 sequence (Q99436 44-277): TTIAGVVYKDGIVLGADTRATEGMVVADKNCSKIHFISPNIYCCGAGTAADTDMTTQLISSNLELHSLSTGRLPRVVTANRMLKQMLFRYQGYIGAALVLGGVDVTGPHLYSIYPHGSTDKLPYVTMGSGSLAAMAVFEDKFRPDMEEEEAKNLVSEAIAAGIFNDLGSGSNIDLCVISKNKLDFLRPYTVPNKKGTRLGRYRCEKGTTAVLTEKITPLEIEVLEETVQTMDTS
# cathepsin D = target: T2, cathepsin D (Homo sapiens, UniProt P07339); assay: Cathepsin D activity assay (SENSOLYTE 520); format: cell-based; conditions: concentrations as high as 27 μM
# T2 construct: endogenous in cells
# Protocol: Cathepsin B, H, L, S activity was measured with pan-cathepsin substrate Z-FR-amc (Kirschke & Wiederanders (1994) Methods Enzymol. 244:500-11) in extracts of cytosol-less cells at pH 6.0 (Screen, et al. (2010) supra). Cathepsin D activity was measured in cytosol-less extracts using SENSOLYTE 520 Cathepsin D Fluorometric Assay Kit (AnaSpec). Combined cathepsin D and E activity was measured using the same kit, in which cathepsin D substrate provided with the kit was replaced with 7-Methoxycoumarin-[…](Dnp)-X′-NH2 (SEQ ID NO:10; where “X′” stand for D-Arg) internally quenched fluorogenic substrate of cathepsin D and E. In this case, pH 3.0 assay buffer used for cell extraction. All activity observed using both procedures was inhibited by more than 98% by specific inhibitor of aspartic proteases pepstatin A.
# [3] = target: caspase-like site of 26S proteasomes (Oryctolagus cuniculus, UniProt A0A5F9DQW2); assay: Inhibition of purified 26S proteasomes, substrate Ac-nLPnLD-amc; format: biochemical, rabbit; conditions: >>30 no inhibition at 30 μM, >30 inhibition between 10 and 50% at 30 μM, read-out: IC50 for sites in 26S proteasomes: Casp-L
# [4] = target: T3, chymotrypsin-like site of 26S proteasomes (Oryctolagus cuniculus, UniProt G1T4Q9); assay: Inhibition of purified 26S proteasomes, substrate Suc-LLVY-amc; format: biochemical, rabbit; conditions: >>30 no inhibition at 30 μM, >30 inhibition between 10 and 50% at 30 μM, read-out: IC50 for sites in 26S proteasomes: Chym-L
# T3 sequence (G1T4Q9 1-263): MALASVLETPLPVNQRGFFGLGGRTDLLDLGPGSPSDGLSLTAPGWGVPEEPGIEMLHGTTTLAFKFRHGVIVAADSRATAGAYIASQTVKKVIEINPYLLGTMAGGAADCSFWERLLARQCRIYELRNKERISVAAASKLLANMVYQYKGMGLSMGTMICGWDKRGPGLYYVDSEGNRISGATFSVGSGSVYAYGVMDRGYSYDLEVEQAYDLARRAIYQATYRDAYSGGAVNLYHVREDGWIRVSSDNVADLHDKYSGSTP
# [5] = tested on: peripheral blood mononuclear cells (PBMNCs); assay: CELL TITER-GLO viability of PBMNCs; format: cell-based; conditions: cells from three donors
# Protocol: as §1
# T2 sequence (P07339 65-412): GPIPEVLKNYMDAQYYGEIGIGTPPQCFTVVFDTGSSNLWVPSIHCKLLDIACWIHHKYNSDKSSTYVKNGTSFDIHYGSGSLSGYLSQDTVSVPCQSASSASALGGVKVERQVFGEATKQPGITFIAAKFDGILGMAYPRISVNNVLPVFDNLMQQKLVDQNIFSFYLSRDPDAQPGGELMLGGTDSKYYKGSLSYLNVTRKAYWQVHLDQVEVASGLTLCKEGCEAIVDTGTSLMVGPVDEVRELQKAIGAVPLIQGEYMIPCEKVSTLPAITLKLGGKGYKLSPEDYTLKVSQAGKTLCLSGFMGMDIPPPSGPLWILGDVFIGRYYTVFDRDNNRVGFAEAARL
# Chain of caspase-like site of 26S proteasomes (A0A5F9DQW2 1-212): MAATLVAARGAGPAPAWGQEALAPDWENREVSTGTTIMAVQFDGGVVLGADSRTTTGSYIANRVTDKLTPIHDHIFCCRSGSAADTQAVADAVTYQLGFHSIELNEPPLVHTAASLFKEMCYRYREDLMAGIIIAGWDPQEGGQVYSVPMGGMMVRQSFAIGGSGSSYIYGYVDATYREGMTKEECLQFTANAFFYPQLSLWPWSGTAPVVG
smiles,measurement,setting,value
"Cc1c(O)cccc1C(=O)N[C@H](C(=O)N[C@@H](CO)C(=O)N[C@@H](CCCNC(=N)N)C(=O)[C@@]1(C)CO1)C(C)C [NC-022, HMB-Val-Ser-Arg-ek]",sensitization to LU-005 compared with NC-001,[1]; NCI-H929 and KMS-12-BM,more potent sensitizer than NC-001
same,reduction of the IC50 for LU-005,"[1]; all MM cell lines, NC-022 at concentration inhibiting trypsin-like activity >90% after 6 h",4-10 fold
same,reduction of cell viability,"[1]; continuous exposure to mixture of NC-022 and NC-001, both sites blocked by more than 90%",20-50%
same,sensitization of MM cells to LU-005,[1]; mixture of NC-001 and NC-022 after 1 hour LU-005,much stronger sensitizer than NC-022 alone
same,sensitization: change of IC50 of LU-005,"NCI-H929 cells; LU-005 1 hour, then NC-022 48 hours, maximal at 3 μM NC-022",up to 8.5 fold
same,cell viability,"NCI-H929 cells; NCI-H929, 48 hours, even at concentrations that completely inhibited the trypsin-like sites",No loss of viability
same,IC50,[2]; NCI-H929 cells,> 30 µM
same,IC50,[2]; RPMI-8226 cells,> 30 µM
same,inhibition of cathepsin D,cathepsin D,did not inhibit
same,IC50,[3],16 µM
same,IC50,[4],1.7 µM
same,sensitization of PBMNCs to bortezomib and carfilzomib,[5],did not sensitize cells
